From US10934298B2, “Substituted pyrazolo[1,5-a]pyrimidines for the treatment of medical disorders” (BIAL—BioTech Investments, Inc., priority 2016, dated 2021) come the findings set out here.

This assay has as its target T1, glucocerebrosidase (Gcase) (Homo sapiens, UniProt P04062).
T1 construct: micellar solution containing 10 nM GCase and 100 nM saposin C
T1 sequence (P04062 40-536): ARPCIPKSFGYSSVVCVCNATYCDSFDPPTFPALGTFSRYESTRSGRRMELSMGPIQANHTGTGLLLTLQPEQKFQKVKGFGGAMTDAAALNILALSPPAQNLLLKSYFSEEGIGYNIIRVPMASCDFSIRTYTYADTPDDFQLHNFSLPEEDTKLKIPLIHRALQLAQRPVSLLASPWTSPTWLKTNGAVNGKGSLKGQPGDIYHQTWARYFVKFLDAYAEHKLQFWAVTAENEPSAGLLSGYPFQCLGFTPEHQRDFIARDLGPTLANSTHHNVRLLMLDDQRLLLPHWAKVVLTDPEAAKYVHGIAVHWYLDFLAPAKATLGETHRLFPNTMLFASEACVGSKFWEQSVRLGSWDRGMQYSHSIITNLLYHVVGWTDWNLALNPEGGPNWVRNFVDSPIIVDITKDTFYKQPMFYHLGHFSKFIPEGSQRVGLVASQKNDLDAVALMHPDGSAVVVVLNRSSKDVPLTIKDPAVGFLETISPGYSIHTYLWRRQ
Briefly: Glucocerebrosidase (Gcase) activation assay with 4-methylumbelliferyl-beta-D-glucopyranoside substrate, saposin C and phosphatidylserine/triton micelles, fluorescence readout. It is filed as biochemical. As to conditions: for Percent Gcase Activation, 0.1 μM Test Compound: test compound at 0.1 μM; for Percent Gcase Activation, 1 μM Test Compound: test compound at 1.0 μM. In a few lines: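 Test compounds are first screened at 1.0 and 0.1 μM final, then titrated in 8 points (3-fold from 5 μM) against human GCase with saposin C in phosphatidylserine/triton X-100 micelles at pH 4.7. Reactions run 15 min at room temperature, with fluorescence read at 365/440 nm.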

Turning to `C#CC(NC(=O)c1cnn2c(C)cc(-c3cccc(Cl)c3)nc12)C(F)(F)F` (stereo not drawn) [III-99], the “Percent Gcase Activation, 0.1 μM Test Compound” value was “*** (greater than 20% Gcase activation)” and the “Percent Gcase Activation, 1 μM Test Compound” value was “++ (Gcase activation in the range of 30% up to 60%)”.
Taken in the same sequence, the figures for `Cc1cc(-c2ccns2)nc2c(C(=O)N[C@H](C3CC3)C(F)(F)F)cnn12` [III-100] were “*** (greater than 20% Gcase activation)” and “+++ (Gcase activation greater than 60%)”.
Turning to `Cc1cc(-c2ccns2)nc2c(C(=O)N[C@@H](C3CC3)C(F)(F)F)cnn12` [III-101], the “Percent Gcase Activation, 0.1 μM Test Compound” value is listed as “*** (greater than 20% Gcase activation)” and the “Percent Gcase Activation, 1 μM Test Compound” value is recorded as “+++ (Gcase activation greater than 60%)”.
For the compound `Cc1cc(-c2cccc(-c3ncc[nH]3)c2)nc2c(C(=O)NC(C3CC3)C(F)(F)F)cnn12` (stereo not drawn) [III-102], the “Percent Gcase Activation, 0.1 μM Test Compound” value is on record as “* (less than 10% Gcase activation)” and the “Percent Gcase Activation, 1 μM Test Compound” value is “+ (less than 30% Gcase activation)”.
For `Cc1cc(-c2cccc(Oc3ncccn3)c2)nc2c(C(=O)NC(C3CC3)C(F)(F)F)cnn12` (stereo not drawn) [III-103], in that order: “* (less than 10% Gcase activation)” and “+++ (Gcase activation greater than 60%)”.
In the case of `Cc1cc(-c2cccc3ncoc23)nc2c(C(=O)NC(C3CC3)C(F)(F)F)cnn12` (stereo not drawn) [III-104], the “Percent Gcase Activation, 0.1 μM Test Compound” value is listed as “*** (greater than 20% Gcase activation)” and the “Percent Gcase Activation, 1 μM Test Compound” value was “+++ (Gcase activation greater than 60%)”.
For the compound `Cc1cc(-c2cccc3ocnc23)nc2c(C(=O)NC(C3CC3)C(F)(F)F)cnn12` (stereo not drawn) [III-106], the “Percent Gcase Activation, 0.1 μM Test Compound” value is “*** (greater than 20% Gcase activation)” and the “Percent Gcase Activation, 1 μM Test Compound” value was “++ (Gcase activation in the range of 30% up to 60%)”.
Taken in the same sequence, the figures for `Cc1cc(-n2ccc(Cl)n2)nc2c(C(=O)NC(C3CC3)C(F)(F)F)cnn12` (stereo not drawn) [III-107] were “*** (greater than 20% Gcase activation)” and “+++ (Gcase activation greater than 60%)”.
Taken in the same sequence, the figures for `Cc1cc(-c2ccc3ocnc3c2)nc2c(C(=O)NC(C3CC3)C(F)(F)F)cnn12` (stereo not drawn) [III-108] were “*** (greater than 20% Gcase activation)” and “+++ (Gcase activation greater than 60%)”.
For `Cc1cc(-c2ccc3ocnc3c2)nc2c(C(=O)N[C@H](C3CC3)C(F)(F)F)cnn12` [III-109], the “Percent Gcase Activation, 0.1 μM Test Compound” value was “*** (greater than 20% Gcase activation)” and the “Percent Gcase Activation, 1 μM Test Compound” value was “+++ (Gcase activation greater than 60%)”.
Taken in the same sequence, the figures for `Cc1cc(-c2ccc3ocnc3c2)nc2c(C(=O)N[C@@H](C3CC3)C(F)(F)F)cnn12` [III-110] were “*** (greater than 20% Gcase activation)” and “+++ (Gcase activation greater than 60%)”.
Taken in the same sequence, the figures for `Cc1cc(-c2cccc(F)c2)nc2c(C(=O)NC(C3CC3)C(F)(F)F)cnn12` (stereo not drawn) [III-111] were “*** (greater than 20% Gcase activation)” and “+++ (Gcase activation greater than 60%)”.
As to `Cc1cc(-c2ccc(F)nc2)nc2c(C(=O)NC(C3CC3)C(F)(F)F)cnn12` (stereo not drawn) [III-112], the “Percent Gcase Activation, 0.1 μM Test Compound” value is listed as “*** (greater than 20% Gcase activation)” and the “Percent Gcase Activation, 1 μM Test Compound” value is on record as “+++ (Gcase activation greater than 60%)”.
As for `Cc1cc(-c2cccnc2F)nc2c(C(=O)NC(C3CC3)C(F)(F)F)cnn12` (stereo not drawn) [III-113], the “Percent Gcase Activation, 0.1 μM Test Compound” value is on record as “*** (greater than 20% Gcase activation)” and the “Percent Gcase Activation, 1 μM Test Compound” value was “+++ (Gcase activation greater than 60%)”.
Taken in the same sequence, the figures for `Cc1cc(-c2cccnc2F)nc2c(C(=O)N[C@H](C3CC3)C(F)(F)F)cnn12` [III-114] were “*** (greater than 20% Gcase activation)” and “+++ (Gcase activation greater than 60%)”.
Taken in the same sequence, the figures for `Cc1cc(-c2cccnc2F)nc2c(C(=O)N[C@@H](C3CC3)C(F)(F)F)cnn12` [III-115] were “*** (greater than 20% Gcase activation)” and “+++ (Gcase activation greater than 60%)”.
Regarding `Cc1cc(-c2ccc(Cl)nc2)nc2c(C(=O)NC(C3CC3)C(F)(F)F)cnn12` (stereo not drawn) [III-116], the “Percent Gcase Activation, 0.1 μM Test Compound” value is “*** (greater than 20% Gcase activation)” and the “Percent Gcase Activation, 1 μM Test Compound” value was “+++ (Gcase activation greater than 60%)”.
For the compound `Cc1cc(-c2ccc(Cl)nc2)nc2c(C(=O)N[C@H](C3CC3)C(F)(F)F)cnn12` [III-117], the “Percent Gcase Activation, 0.1 μM Test Compound” value was “*** (greater than 20% Gcase activation)” and the “Percent Gcase Activation, 1 μM Test Compound” value is “+++ (Gcase activation greater than 60%)”.
As to `Cc1cc(-c2cncc(Cl)c2)nc2c(C(=O)NC(C3CC3)C(F)(F)F)cnn12` (stereo not drawn) [III-119], the “Percent Gcase Activation, 0.1 μM Test Compound” value is “*** (greater than 20% Gcase activation)” and the “Percent Gcase Activation, 1 μM Test Compound” value is recorded as “+++ (Gcase activation greater than 60%)”.
In the case of `Cc1cc(-c2cncc(Cl)c2)nc2c(C(=O)N[C@H](C3CC3)C(F)(F)F)cnn12` [III-120], the “Percent Gcase Activation, 0.1 μM Test Compound” value is “*** (greater than 20% Gcase activation)” and the “Percent Gcase Activation, 1 μM Test Compound” value was “+++ (Gcase activation greater than 60%)”.
Taken in the same sequence, the figures for `Cc1cc(-c2cncc(Cl)c2)nc2c(C(=O)N[C@@H](C3CC3)C(F)(F)F)cnn12` [III-121] were “*** (greater than 20% Gcase activation)” and “+++ (Gcase activation greater than 60%)”.
For the compound `Cc1cc(-c2cnccc2Cl)nc2c(C(=O)NC(C3CC3)C(F)(F)F)cnn12` (stereo not drawn) [III-122], the “Percent Gcase Activation, 0.1 μM Test Compound” value is on record as “*** (greater than 20% Gcase activation)” and the “Percent Gcase Activation, 1 μM Test Compound” value is “+++ (Gcase activation greater than 60%)”.
Taken in the same sequence, the figures for `Cc1cc(-c2cccnc2Cl)nc2c(C(=O)NC(C3CC3)C(F)(F)F)cnn12` (stereo not drawn) [III-123] were “** (Gcase activation in the range of 10% up to 20%)” and “+++ (Gcase activation greater than 60%)”.
In the case of `Cc1cc(-c2cnccc2F)nc2c(C(=O)NC(C3CC3)C(F)(F)F)cnn12` (stereo not drawn) [III-124], the “Percent Gcase Activation, 0.1 μM Test Compound” value is given as “*** (greater than 20% Gcase activation)” and the “Percent Gcase Activation, 1 μM Test Compound” value is “+++ (Gcase activation greater than 60%)”.
Turning to `Cc1cc(-c2cncc(F)c2)nc2c(C(=O)NC(C3CC3)C(F)(F)F)cnn12` (stereo not drawn) [III-125], the “Percent Gcase Activation, 0.1 μM Test Compound” value is recorded as “*** (greater than 20% Gcase activation)” and the “Percent Gcase Activation, 1 μM Test Compound” value is listed as “+++ (Gcase activation greater than 60%)”.
`Cc1cc(-c2cncc(F)c2)nc2c(C(=O)N[C@H](C3CC3)C(F)(F)F)cnn12` [III-126]: the “Percent Gcase Activation, 0.1 μM Test Compound” value was “*** (greater than 20% Gcase activation)” and the “Percent Gcase Activation, 1 μM Test Compound” value is on record as “+++ (Gcase activation greater than 60%)”.
Take `Cc1cc(-c2cncc(F)c2)nc2c(C(=O)N[C@@H](C3CC3)C(F)(F)F)cnn12` [III-127]: the “Percent Gcase Activation, 0.1 μM Test Compound” value is “*** (greater than 20% Gcase activation)” and the “Percent Gcase Activation, 1 μM Test Compound” value was “+++ (Gcase activation greater than 60%)”.
Taken in the same sequence, the figures for `Cc1cc(-c2cc(F)cc(C#N)c2)nc2c(C(=O)N[C@@H](C)C3CC3)cnn12` [III-128] were “*** (greater than 20% Gcase activation)” and “+++ (Gcase activation greater than 60%)”.
With `COc1cc(C#N)cc(-c2cc(C)n3ncc(C(=O)N[C@@H](C)C4CC4)c3n2)c1` [III-129], the “Percent Gcase Activation, 0.1 μM Test Compound” value is “*** (greater than 20% Gcase activation)” and the “Percent Gcase Activation, 1 μM Test Compound” value is given as “+++ (Gcase activation greater than 60%)”.
For `Cc1cc(-c2cccc(Cl)n2)nc2c(C(=O)N[C@@H](C)C3CC3)cnn12` [III-131], in that order: “*** (greater than 20% Gcase activation)” and “+++ (Gcase activation greater than 60%)”.
Taken in the same sequence, the figures for `Cc1cc(-c2cccc(Cl)n2)nc2c(C(=O)N[C@H](C)C3CC3)cnn12` [III-132] were “** (Gcase activation in the range of 10% up to 20%)” and “+++ (Gcase activation greater than 60%)”.
Take `Cc1cc(-c2cccc(C#N)n2)nc2c(C(=O)NC(C3CC3)C(F)(F)F)cnn12` (stereo not drawn) [III-133]: the “Percent Gcase Activation, 0.1 μM Test Compound” value is on record as “** (Gcase activation in the range of 10% up to 20%)” and the “Percent Gcase Activation, 1 μM Test Compound” value is recorded as “+++ (Gcase activation greater than 60%)”.
For `Cc1cc(-c2cccc(F)n2)nc2c(C(=O)N[C@@H](C)C3CC3)cnn12` [III-134], in that order: “** (Gcase activation in the range of 10% up to 20%)” and “+++ (Gcase activation greater than 60%)”.
